Converted amounts (≈) assume the structure as drawn. Like-named read-outs stand apart in the source and are kept apart here.
How the values were obtained:
[1] = Stability in 5% NaHCO3/D2O at room temperature, monitored by PMR; assay type: physicochemical
Experimental: (§1) To a 5 mm NMR tube containing 10 mg of sample was added 0.5 mL of 2.5% K2 CO3 /D2 O solution. The initial spectrum of the solution was taken within 5 minutes, and again at intervals thereafter. The extent of hydrolysis was estimated by the following equation:
(§2) % Decomposition=(B/2A+B)×100
(§3) where A=integration of H-10 (5.80 ppm, d, J=10.8 Hz, 1H) and H-12 (5.71 ppm, s, 1H) of artesunate; B=integration of the singlet at 2.42 ppm for the potassium succinate formed. With time, the intensity of potassium succinate (2.42 ppm) signal increases, while that of H-10 and H-12 of artesunate decreases. The stability study of compound 1 in 5% NaHCO3 /D2 O was also carried out by the same procedure.

[2] = background, cited from earlier work
[3] = test system: Plasmodium berghei; test: In vivo suppressive blood schizonticidal and curative activity in infected mice, 60 days survival; set-up: species or system Plasmodium berghei (in mice); conditions: for Number active (A): active = survival time greater than twice control mice (12 to 14 days); for Number of Cures: cured = surviving 60 days
Experimental: The suppressive blood schizonticidal and curative activities of artemisinin, artelinic acid and artesunic acid, were measured in a test where mice were infected with 5.98×10^5 Plasmodium berghei parasitized cells intraperitoneally on day zero. […] The dose levels of compounds given were 640, 160, and 40 mg/kg/day. Blood films were taken on days 6, 13, and 20. Blood schizonticidal activity was determined by monitoring blood films for the appearance of parasites and for extended survival times compared to infected untreated controls. Mice surviving 60 days were considered cured. The infected untreated control mice (negative controls) died on either day 6 or 7. Compounds were considered active when the survival time of the treated mice was greater than twice the control mice, i.e., 12 to 14 days.

[4] = physchem; assay type: physicochemical
Experimental: To compare the relative stability of the new agents vs. artesunic acid, stability studies of compound 8d and compound 1 were conducted in 2.5% K2 CO3 /D2 O solution at room temperature and were monitored by PMR. [drawing 8]
as §1, §2, §3

[5] = test system: malaria; conditions: background; cited from earlier work
[6] = test system: malaria; conditions: background, reported; cited from earlier work
[7] = test system: cerebral malaria; conditions: background; cited from earlier work
[8] = test system: Plasmodium falciparum D-6 (Sierra Leone clone) and W-2 (Indochina clone); test: In vitro antimalarial activity against both clones, summarised in words; assay type: cell-based; conditions: D-6 and W-2 clones
Experimental: (§4) The former clone is a strain that is resistant to mefloquine and the latter, to chloroquine, pyrimethamine, sulfadoxine, and quinine.
(§5) In vitro assays were conducted using a modification of the semiautomated microdilution technique of Desjardins et al., Antimicrob. Agents Chemoether., 1979, Volume 16, page 710 and Milhous et al., Antimicrob. Agents Chemother., 1985, Volume 27, page 525. Two P. falciparum malaria parasite clones, designated as Indochina (W-2) and Sierra Leone (D-6), were utilized in susceptibility testing. They were derived by direct visualization and micromanipulation from patient isolates obtained by the Centers for Disease Control, Atlanta, GA in 1980 and 1982, respectively. The patients had acquired infections either in Vietnam or Sierra Leone. The Indochina clone is resistant to the antimalarials chloroquine, sulfadoxine, pyrimethamine, and quinine, whereas the Sierra Leone, is resistant to mefloquine but susceptible to chloroquine, quinine, sulfadoxine, and pyrimethamine. Test compounds were initially dissolved in DMSO and 70% ethanol and diluted in RPMI 1640 culture medium with 10% human plasma to 400 fold. Drugs were subsequently further diluted using the Cetus Pro/Pette (Perkin-Elmer Corp., Norwalk, CT) over a range of 1.56-100×10^-9 molar. Parasite inocula (at 0.5% parasitemia and a 1% hematocrit) were incubated for 24 hours and added to equimolar concentrations of each test compound prior to the addition of ^3 H-hypoxanthine. After a further incubation of 18 hours, particulate matter was harvested from each microtiter well using an automated cell harvester (Skatron, Inc., Sterling, VA). Uptake of ^3 H-hypoxanthine was measured using a scintillation spectrophotometer (Model LS3801, Beckman Instruments, Irvine, CA). Concentration-response data were analyzed by nonlinear regression and the IC50 's (50% inhibitory concentrations) for each compound were calculated.

[9] = test system: P. falciparum Sierra Leone (D-6) clone; test: In vitro antimalarial susceptibility, 3H-hypoxanthine uptake, Sierra Leone (D-6) clone; assay type: cell-based, Plasmodium falciparum; conditions: for IC50: Plasmodium falciparum
Experimental: as §4
as §5, with “CA).” for “CA). Concentration-response data were analyzed by nonlinear regression and the IC50 's (50% inhibitory concentrations) for each compound were calculated.”

[10] = test system: P. falciparum Indochina (W-2) clone; test: In vitro antimalarial susceptibility, 3H-hypoxanthine uptake, Indochina (W-2) clone; assay type: cell-based, Plasmodium falciparum; conditions: for IC50: Plasmodium falciparum
Experimental: as §4
as §5, with “CA).” for “CA). Concentration-response data were analyzed by nonlinear regression and the IC50 's (50% inhibitory concentrations) for each compound were calculated.”

[11] = 40 mg/kg/day SC x 3 days, 5% NaHCO3
[12] = 160 mg/kg/day SC x 3 days, 5% NaHCO3
[13] = 640 mg/kg/day SC x 3 days, 5% NaHCO3
[14] = 40 mg/kg/day SC x 3 days, peanut oil

C[C@H]1[C@H](OC(=O)CCC(=O)O)O[C@@H]2O[C@@]3(C)CC[C@H]4[C@H](C)CC[C@@H]1[C@@]24OO3 [Compound 1, artesunic acid]
half-life of hydrolysis (estimated) ([1]; 5% NaHCO3): about 4.5 days
rate of hydrolysis compared with 2.5% K2CO3/D2O ([1]; 5% NaHCO3/D2O vs 2.5% K2CO3/D2O): slower
degraded at 4 h ([1]; 5% NaHCO3/D2O, room temperature, 4 hours, read-out: % Hydrolysis): < 5%
degraded at 48 h ([1]; 5% NaHCO3/D2O, room temperature, 2 days, read-out: % Hydrolysis): 22%
degraded at 72 h ([1]; 5% NaHCO3/D2O, room temperature, 3 days, read-out: % Hydrolysis): 33%
degraded at 96 h ([1]; 5% NaHCO3/D2O, room temperature, 4 days, read-out: % Hydrolysis): 45%
degraded at 192 h ([1]; 5% NaHCO3/D2O, room temperature, 8 days, read-out: % Hydrolysis): 75%
degraded at 216 h ([1]; 5% NaHCO3/D2O, room temperature, 9 days, read-out: % Hydrolysis): 82%
water solubility ([2]; listed as compound 1): water-soluble
Number active (A) [3, 11]: 2/5
Number of Cures [3, 11]: 0/5
Number active (A) [3, 12]: 3/5
Number of Cures [3, 12]: 0/5
Number of Cures [3, 13]: 5/5
half-life of hydrolysis (estimated) ([4]; 2.5% K2CO3 solution): < 24 h
degraded at 1.5 h ([4]; 2.5% k2co3/d2o): 20%
degraded at 24 h ([4]; 2.5% k2co3/d2o): 60%
degraded at 48 h ([4]; 2.5% k2co3/d2o): 75%
degraded at 72 h ([4]; 2.5% k2co3/d2o): 91%
degraded at 96 h ([4]; 2.5% k2co3/d2o): 98%

C[C@@H]1CC[C@H]2[C@@H](C)C(O)O[C@@H]3O[C@@]4(C)CC[C@@H]1[C@]32OO4 (stereo partly shown) [Compound 2, Dihydroartemisinin]
cross-resistance to chloroquine [5]: Neither artemisinin nor dihydroartemisinin exhibit cross-resistance to chloroquine
therapeutic activity compared with its parent compound artemisinin [6]: more therapeutically active than its parent compound
efficacy against cerebral malaria in man [7]: proven efficacious against cerebral malaria in man
cross-resistance to mefloquine, chloroquine, pyrimethamine, sulfadoxine, quinine [8]: not cross-resistant

CC1CCC2C(C)C(OCC(=O)O)OC3OC4(C)CCC1C32OO4 (stereo not shown) [Compound 7a, Potassium 2-(10-Dihydroartemisininoxy)acetate]
In vitro antimalarial activity IC50, Sierra Leone (D-6) [9]: 53.79 ng/mL
IC50 [10]: 26.2 ng/mL

CC1CCC2C(C)C(OCCCC(=O)O)OC3OC4(C)CCC1C32OO4 (stereo not shown) [Compound 8c, 4-(10-Dihydroartemisininoxy)butyric Acid]
In vitro antimalarial activity IC50, Sierra Leone (D-6) [9]: 17.90 ng/mL
In vitro antimalarial activity IC50, Indochina Clone (W-2) [10]: 8.04 ng/mL

CC1CCC2C(C)C(OCCC(=O)O)OC3OC4(C)CCC1C32OO4 (stereo not shown) [Compound 7b, Potassium 3-(10-Dihydroartemisininoxy)propionate]
In vitro antimalarial activity IC50, Sierra Leone (D-6) [9]: 85.02 ng/mL
In vitro antimalarial activity IC50, Indochina Clone (W-2) [10]: 23.28 ng/mL

C[C@@H]1CC[C@H]2[C@@H](C)C(=O)O[C@@H]3O[C@@]4(C)CC[C@@H]1[C@]32OO4 [Compound 3, Artemisinin]
cross-resistance to chloroquine [5]: Neither artemisinin nor dihydroartemisinin exhibit cross-resistance to chloroquine
IC50 [9]: 2.93 ng/mL (≈ 10.4 nM)
efficacy against cerebral malaria in man [7]: proven efficacious against cerebral malaria in man
cross-resistance to mefloquine, chloroquine, pyrimethamine, sulfadoxine, quinine [8]: not cross-resistant
Blood films positive ([3]; 40 mg/kg, peanut oil, SC): 3 of 5
Number active (A) [3, 14]: 3/5
Number of Cures [3, 14]: 2/5
Blood films ([3]; 160 mg/kg, peanut oil, SC): negative
Number of Cures ([3]; 160 mg/kg/day SC x 3 days, peanut oil): 5/5
Blood films ([3]; 640 mg/kg, peanut oil, SC): negative
Number of Cures ([3]; 640 mg/kg/day SC x 3 days, peanut oil): 5/5
IC50 [10]: 0.66 ng/mL (≈ 2.34 nM)

CC1CCC2C(C)C(OCCC(=O)O)OC3OC4(C)CCC1C32OO4 (stereo not shown) [Compound 8b, 3-(10-Dihydroartemisininoxy)propionic Acid]
In vitro antimalarial activity IC50, Sierra Leone (D-6) [9]: 51.74 ng/mL
IC50 [10]: 35.6 ng/mL (≈ 100 nM)

CC1CCC2C(C)C(OCCCC(=O)O)OC3OC4(C)CCC1C32OO4 (stereo not shown) [Compound 7c, Potassium 4-(10-Dihydroartemisininoxy)butyrate]
In vitro antimalarial activity IC50, Sierra Leone (D-6) [9]: 75.52 ng/mL
IC50 [10]: 10.5 ng/mL

COC(=O)CCOC1OC2OC3(C)CCC4C(C)CCC(C1C)C24OO3 (stereo not shown) [Compound 5b, Methyl 3-(10-Dihydroartemisininoxy)propionate]
IC50 [9]: 1.84 ng/mL (≈ 4.97 nM)
IC50 [10]: 0.64 ng/mL (≈ 1.73 nM)

CC1CCC2C(C)C(OCc3ccc(C(=O)O)cc3)OC3OC4(C)CCC1C32OO4 (stereo not shown) [Compound 8d, Para-(10-Dihydroartemisininoxy)methylbenzoic Acid]
In vitro antimalarial activity IC50, Sierra Leone (D-6) [9]: 4.07 ng/mL
Number of Cures [3, 11]: 5/5
Number of Cures [3, 12]: 5/5
Number of Cures [3, 13]: 5/5
detectable change ([4]; 2.5% K2CO3/D2O, room temperature, after 35 days): no detectable change
degraded at 1.5 h ([4]; 2.5% k2co3/d2o): 0%
degraded at 24 h ([4]; 2.5% k2co3/d2o): 0%
degraded at 48 h ([4]; 2.5% k2co3/d2o): 0%
degraded at 72 h ([4]; 2.5% k2co3/d2o): 0%
degraded at 96 h ([4]; 2.5% k2co3/d2o): 0%
degraded at 1608 h ([4]; 2.5% k2co3/d2o): < 3%
In vitro antimalarial activity IC50, Indochina Clone (W-2) [10]: 1.38 ng/mL

COC(=O)c1ccc(COC2OC3OC4(C)CCC5C(C)CCC(C2C)C35OO4)cc1 (stereo not shown) [Compound 5d, Methyl p-(10-Dihydroartemisininoxy)methylbenzoate]
IC50 [9]: 0.77 ng/mL (≈ 1.78 nM)
IC50 [10]: 0.37 ng/mL (≈ 0.855 nM)

C[C@H]1[C@H](OC(=O)CCC(=O)O)O[C@@H]2O[C@@]3(C)CC[C@H]4[C@H](C)CC[C@@H]1[C@@]24OO3 [Sodium artesunate]
water solubility [2]: water soluble

COC(=O)CCCOC1OC2OC3(C)CCC4C(C)CCC(C1C)C24OO3 (stereo not shown) [Compound 5c, Methyl 4-(10-Dihydroartemisininoxy)butyrate]
IC50 [9]: 3.06 ng/mL (≈ 7.96 nM)
IC50 [10]: 0.95 ng/mL (≈ 2.47 nM)

CCOC(=O)COC1OC2OC3(C)CCC4C(C)CCC(C1C)C24OO3 (stereo not shown) [Compound 5a, Ethyl 2-(10-Dihydroartemisininoxy)acetate]
IC50 [9]: 0.6 ng/mL (≈ 1.62 nM)
IC50 [10]: 0.26 ng/mL (≈ 0.702 nM)

Source: patent US4791135A (priority 1987, dated 1988)
